IC50 data for 25 compounds are collected here from patent US11987588B2, “Modulators of the beta-3 adrenergic receptor useful for the treatment or prevention of heart failure and disorders related thereto” (Arena Pharmaceuticals, Inc., priority 2017, dated 2024).

Chain of Beta-3 Adrenergic Receptor (P13945 whole entry, species assumed): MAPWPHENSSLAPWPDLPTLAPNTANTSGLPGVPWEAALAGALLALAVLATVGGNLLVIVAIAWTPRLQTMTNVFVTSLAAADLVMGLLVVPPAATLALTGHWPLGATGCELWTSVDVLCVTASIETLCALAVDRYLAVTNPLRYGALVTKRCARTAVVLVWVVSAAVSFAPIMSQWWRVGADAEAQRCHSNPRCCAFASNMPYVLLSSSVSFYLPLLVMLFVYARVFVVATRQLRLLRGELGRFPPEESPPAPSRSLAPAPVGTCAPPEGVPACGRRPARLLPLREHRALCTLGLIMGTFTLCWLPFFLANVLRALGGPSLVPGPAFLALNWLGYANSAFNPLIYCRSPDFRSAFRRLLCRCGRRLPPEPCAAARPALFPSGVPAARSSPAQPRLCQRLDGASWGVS

This assay deals with Beta-3 Adrenergic Receptor (Homo sapiens (Human), UniProt P13945). The experiment in a line: Homogeneous Time-Resolved Fluorescence (HTRF) cAMP antagonist assay, IC50 determination. Type of assay: cell-based. The following applies: CHO-K1 cells stably expressing recombinant receptor, isoproterenol at EC90. The essentials:
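CHO-K1 cells stably expressing receptor, 1500 cells/well, preincubated briefly with 10-point 5-fold compound series (top final typically 10 or 100 μM) in PBS with 1 mM IBMX, then challenged with isoproterenol at EC90 for 1 h at room temperature. cAMP read by HTRF against on-plate standard curve; IC50 from dose-response.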
In general, IC50 refers to the point on the concentration scale where inhibition reaches its midpoint. Consider `CNS(=O)(=O)c1cccc(OC[C@@H](O)CN[C@H]2COC3(CCN(S(=O)(=O)c4cnc5c(c4)N(CCO)CCO5)CC3)C2)c1` [Compound 465, 3-((S)-2-hydroxy-3-((R)-8-(1-(2-hydroxyethyl)-2,3-dihydro-1H-pyrido[2,3-b][1,4]oxazin-7-ylsulfonyl)-1-oxa-8-azaspiro[4.5]decan-3-ylamino)propoxy)-N-methylbenzenesulfonamide], for which the IC50 was found to be 26.3 nM. With `CNS(=O)(=O)c1cccc(OC[C@@H](O)CNC2COC3(CCN(S(=O)(=O)c4cc(Cl)ccc4Cl)CC3)C2)c1` (stereo partly drawn) [Compound 140, 3-((2S)-3-(8-(2,5-dichlorophenylsulfonyl)-1-oxa-8-azaspiro[4.5]decan-3-ylamino)-2-hydroxypropoxy)-N-methylbenzenesulfonamide], the IC50 came to 11.3 nM.

Consider `CNS(=O)(=O)c1cccc(OC[C@@H](O)CN[C@H]2COC3(CCN(S(=O)(=O)c4cnc5c(C)cccc5c4O)CC3)C2)c1` [Compound 528, 3-((S)-2-hydroxy-3-((R)-8-(4-hydroxy-8-methylquinolin-3-ylsulfonyl)-1-oxa-8-azaspiro[4.5]decan-3-ylamino)propoxy)-N-methylbenzenesulfonamide], for which the IC50 is 10.2 nM. In the case of `O=S(=O)(NCC1CCCNC1)c1cccc(OC[C@@H](O)CNC2COC3(CCN(S(=O)(=O)c4ccc5ccccc5c4)CC3)C2)c1` (stereo partly drawn) [Compound 168, 3-((2S)-2-hydroxy-3-(8-(naphthalen-2-ylsulfonyl)-1-oxa-8-azaspiro[4.5]decan-3-ylamino)propoxy)-N-(piperidin-3-ylmethyl)benzenesulfonamide], the IC50 is 1470 nM. As for `CCNS(=O)(=O)c1cccc(OC[C@@H](O)CNC2COC3(CCN(S(=O)(=O)c4ccc5c(c4)NC(=O)CO5)CC3)C2)c1` (stereo partly drawn) [Compound 228, N-ethyl-3-((2S)-2-hydroxy-3-(8-(3-oxo-3,4-dihydro-2H-benzo[b][1,4]oxazin-6-ylsulfonyl)-1-oxa-8-azaspiro[4.5]decan-3-ylamino)propoxy)benzenesulfonamide], the IC50 is 24.2 nM.

Turning to `CNS(=O)(=O)c1cccc(OC[C@@H](O)CNC2COC3(CCN(S(=O)(=O)c4cc(Cl)ccc4C)CC3)C2)c1` (stereo partly drawn) [Compound 240, 3-((2S)-3-(8-(5-chloro-2-methylphenylsulfonyl)-1-oxa-8-azaspiro[4.5]decan-3-ylamino)-2-hydroxypropoxy)-N-methylbenzenesulfonamide], the IC50 worked out at 28.4 nM. For `NS(=O)(=O)c1cccc(OC[C@@H](O)CN[C@@H]2COC3(CCN(S(=O)(=O)c4cnc5cc[nH]c5c4)CC3)C2)c1` [Compound 563, 3-((S)-3-((S)-8-(1H-pyrrolo[3,2-b]pyridin-6-ylsulfonyl)-1-oxa-8-azaspiro[4.5]decan-3-ylamino)-2-hydroxypropoxy)benzenesulfonamide] the value was 26.4 nM; for `CNS(=O)(=O)c1cccc(OC[C@@H](O)CN[C@@H]2COC3(CCN(S(=O)(=O)c4cncc(-c5ccc(CN)cc5)c4)CC3)C2)c1` [Compound 374, 3-((S)-3-((S)-8-(5-(4-(aminomethyl)phenyl)pyridin-3-ylsulfonyl)-1-oxa-8-azaspiro[4.5]decan-3-ylamino)-2-hydroxypropoxy)-N-methylbenzenesulfonamide], 15.7 nM; for `CNS(=O)(=O)c1cccc(OC[C@@H](O)CNC2COC3(CCN(S(=O)(=O)c4cn(C)cn4)CC3)C2)c1` (stereo partly drawn) [Compound 194, 3-((2S)-2-hydroxy-3-(8-(1-methyl-1H-imidazol-4-ylsulfonyl)-1-oxa-8-azaspiro[4.5]decan-3-ylamino)propoxy)-N-methylbenzenesulfonamide], 97.6 nM.

Take `CNS(=O)(=O)c1cccc(OC[C@@H](O)CNC2COC3(CCN(S(=O)(=O)c4cccc(-c5cc[nH]n5)c4)CC3)C2)c1` (stereo partly drawn) [Compound 84, 3-((2S)-3-(8-(3-(1H-pyrazol-3-yl)phenylsulfonyl)-1-oxa-8-azaspiro[4.5]decan-3-ylamino)-2-hydroxypropoxy)-N-methylbenzenesulfonamide]: the half-maximal inhibitory concentration (IC50) came to 9.09 nM. For the compound `CNS(=O)(=O)c1cccc(OC[C@@H](O)CN[C@H]2COC3(CCN(S(=O)(=O)c4cc(-c5ccc(CN)cc5)ccc4OC(F)(F)F)CC3)C2)c1` [Compound 416, 3-((S)-3-((R)-8-(4′-(aminomethyl)-4-(trifluoromethoxy)biphenyl-3-ylsulfonyl)-1-oxa-8-azaspiro[4.5]decan-3-ylamino)-2-hydroxypropoxy)-N-methylbenzenesulfonamide], the concentration for half-maximal inhibition (IC50) worked out at 262 nM. Turning to `CNS(=O)(=O)c1cccc(OC[C@@H](O)CNC2COC3(CCN(S(=O)(=O)c4ccc(N5CCOCC5)nc4)CC3)C2)c1` (stereo partly drawn) [Compound 406, 3-((2S)-2-hydroxy-3-(8-(6-morpholinopyridin-3-ylsulfonyl)-1-oxa-8-azaspiro[4.5]decan-3-ylamino)propoxy)-N-methylbenzenesulfonamide], the half-maximal inhibitory concentration (IC50) amounted to 31.1 nM. On to `CNS(=O)(=O)c1cccc(OC[C@@H](O)CN[C@H]2COC3(CCN(S(=O)(=O)c4cnc5cc(F)ccc5c4O)CC3)C2)c1` [Compound 539, 3-((S)-3-((R)-8-(7-fluoro-4-hydroxyquinolin-3-ylsulfonyl)-1-oxa-8-azaspiro[4.5]decan-3-ylamino)-2-hydroxypropoxy)-N-methylbenzenesulfonamide], for which the IC50 turned out to be 26 nM. `O=S(=O)(NC1CC1)c1cccc(OC[C@@H](O)CNC2COC3(CCN(S(=O)(=O)c4ccc5ccccc5c4)CC3)C2)c1` (stereo partly drawn) [Compound 74, N-cyclopropyl-3-((2S)-2-hydroxy-3-(8-(naphthalen-2-ylsulfonyl)-1-oxa-8-azaspiro[4.5]decan-3-ylamino)propoxy)benzenesulfonamide]: the half-maximal inhibitory concentration (IC50) was determined as 236 nM. Regarding `CNS(=O)(=O)c1cccc(OC[C@@H](O)CNC2COC3(CCN(S(=O)(=O)c4ccc(C(F)(F)F)cc4)CC3)C2)c1` (stereo partly drawn) [Compound 45, 3-((2S)-2-hydroxy-3-(8-(4-(trifluoromethyl)phenylsulfonyl)-1-oxa-8-azaspiro[4.5]decan-3-ylamino)propoxy)-N-methylbenzenesulfonamide], the IC50 worked out at 19.4 nM.

On to `CNS(=O)(=O)c1cccc(OC[C@@H](O)CNC2COC3(CCN(S(=O)(=O)c4cc(OC)ccc4F)CC3)C2)c1` (stereo partly drawn) [Compound 241, 3-((2S)-3-(8-(2-fluoro-5-methoxyphenylsulfonyl)-1-oxa-8-azaspiro[4.5]decan-3-ylamino)-2-hydroxypropoxy)-N-methylbenzenesulfonamide], for which the IC50 is 27.8 nM. As for `CNS(=O)(=O)c1cccc(OC[C@@H](O)CN[C@H]2COC3(CCN(S(=O)(=O)c4cnc5c(c4)N(C(C)C)CCO5)CC3)C2)c1` [Compound 469, 3-((S)-2-hydroxy-3-((R)-8-(1-isopropyl-2,3-dihydro-1H-pyrido[2,3-b][1,4]oxazin-7-ylsulfonyl)-1-oxa-8-azaspiro[4.5]decan-3-ylamino)propoxy)-N-methylbenzenesulfonamide], the 50% inhibitory concentration (IC50) was determined as 31.3 nM. Consider `CNS(=O)(=O)c1cccc(OC[C@@H](O)CNC2COC3(CCN(S(=O)(=O)c4ccc5[nH]c(=O)sc5c4)CC3)C2)c1` (stereo partly drawn) [Compound 58, 3-((2S)-2-hydroxy-3-(8-(2-oxo-2,3-dihydrobenzo[d]thiazol-6-ylsulfonyl)-1-oxa-8-azaspiro[4.5]decan-3-ylamino)propoxy)-N-methylbenzenesulfonamide], for which the half-inhibitory concentration (IC50) amounted to 43 nM. With `CNS(=O)(=O)c1cccc(OC[C@@H](O)CN[C@H]2COC3(CCN(S(=O)(=O)c4ccc5c(c4)CCCO5)CC3)C2)c1` [Compound 184, 3-((S)-3-((R)-8-(chroman-6-ylsulfonyl)-1-oxa-8-azaspiro[4.5]decan-3-ylamino)-2-hydroxypropoxy)-N-methylbenzenesulfonamide], the half-maximal inhibitory concentration (IC50) was 11.9 nM. Regarding `CNS(=O)(=O)c1cccc(OC[C@@H](O)CNC2COC3(CCN(S(=O)(=O)c4cccc(-c5ccc(CNCCO)cc5)c4)CC3)C2)c1` (stereo partly drawn) [Compound 304, 3-((2S)-2-hydroxy-3-(8-(4′-((2-hydroxyethylamino)methyl)biphenyl-3-ylsulfonyl)-1-oxa-8-azaspiro[4.5]decan-3-ylamino)propoxy)-N-methylbenzenesulfonamide], the IC50 came out at 43 nM.

`CNS(=O)(=O)c1cccc(OC[C@@H](O)CNC2COC3(CCN(S(=O)(=O)c4cc(C)ccc4F)CC3)C2)c1` (stereo partly drawn) [Compound 150, 3-((2S)-3-(8-(2-fluoro-5-methylphenylsulfonyl)-1-oxa-8-azaspiro[4.5]decan-3-ylamino)-2-hydroxypropoxy)-N-methylbenzenesulfonamide]: the IC50 turned out to be 13.5 nM. For `CNS(=O)(=O)c1cccc(OC[C@@H](O)CN[C@H]2COC3(CCN(S(=O)(=O)c4cnc5[nH]cc(Cl)c5c4)CC3)C2)c1` [Compound 510, 3-((S)-3-((R)-8-(3-chloro-1H-pyrrolo[2,3-b]pyridin-5-ylsulfonyl)-1-oxa-8-azaspiro[4.5]decan-3-ylamino)-2-hydroxypropoxy)-N-methylbenzenesulfonamide], the IC50 came out at 4.89 nM. On to `CNS(=O)(=O)c1cccc(OC[C@@H](O)CNC2COC3(CCN(S(=O)(=O)c4cccc(-c5nn[nH]n5)c4)CC3)C2)c1` (stereo partly drawn) [Compound 409, 3-((2S)-3-(8-(3-(2H-tetrazol-5-yl)phenylsulfonyl)-1-oxa-8-azaspiro[4.5]decan-3-ylamino)-2-hydroxypropoxy)-N-methylbenzenesulfonamide], for which the 50% inhibitory concentration (IC50) turned out to be 180 nM. Regarding `CNS(=O)(=O)c1cccc(OC[C@@H](O)CNC2COC3(CCN(S(=O)(=O)c4cccc(-c5ccc(CNCC(F)F)cc5)c4)CC3)C2)c1` (stereo partly drawn) [Compound 339, 3-((2S)-3-(8-(4′-((2,2-difluoroethylamino)methyl)biphenyl-3-ylsulfonyl)-1-oxa-8-azaspiro[4.5]decan-3-ylamino)-2-hydroxypropoxy)-N-methylbenzenesulfonamide], the IC50 was found to be 42.4 nM.

`CNS(=O)(=O)c1cccc(OC[C@@H](O)CNC2COC3(CCN(S(=O)(=O)c4cccc5nsnc45)CC3)C2)c1` (stereo partly drawn) [Compound 128, 3-((2S)-3-(8-(benzo[c][1,2,5]thiadiazol-4-ylsulfonyl)-1-oxa-8-azaspiro[4.5]decan-3-ylamino)-2-hydroxypropoxy)-N-methylbenzenesulfonamide]: the half-inhibitory concentration (IC50) is 11.4 nM.
